Source: publication PMC9986249, “Comparative study on antibacterial characteristics of the multiple liver expressed antimicrobial peptides (LEAPs) in teleost fish” (Frontiers in Immunology, 2023)
No end group written: not given here.

Tests used:
V. fluvialis WY91-24-3 = assay: Bacterial membrane permeability assay (PI influx, flow cytometry); assay type: cell-based, Vibrio fluvialis; conditions: peptide 8 μM, 10 mM NaPB pH 7.4, 37°C, 1 h; PI 9 μM; flow cytometry, 3,000 events; representative of three independent experiments
Experimental: The membrane permeability of bacteria after the treatment of peptides was assessed by flow cytometry as previously described ([33]) with minor modifications. In brief, V. fluvialis WY91-24-3 were cultured to mid-logarithmic phase, then washed twice and resuspended to 10^6 CFU/ml with 10 mM NaPB (pH 7.4). Thereafter, 40 μl of peptides diluted in NaPB was added to 160 μl of V. fluvialis to give a final concentration of 8 μM. LL37 and NaPB was used as the positive and negative control, respectively. After being incubated at 37°C for 1 h, propidium iodide (PI; Sigma-Aldrich) was added to the bacterial suspension at a final concentration of 9 μM. The PI positive bacterial cells were detected using the flow cytometer FACSVerse (BD Biosciences) at 3,000 events and the data were analyzed using the FlowJo software v10 (Tree Star).
Figure 6 Antibacterial mechanisms of LEAPs. (A–J) Membrane permeability of V. fluvialis treated with LEAPs. The bacteria were incubated with LEAPs (8 μM) at 37°C for 1 h, and a bacterial suspension without peptide was included as a control (Ctrl). Then PI (9 μM) was added and the influx of PI was detected by flow cytometry. Data are representative results of three independent experiments. (K) The data in (A–J) were analyzed statistically. The p value was calculated by one-way ANOVA with a Dunnett post hoc test. Different letters indicate significant differences (p<0.05). […]

[1] = test system: Gram-positive and Gram-negative bacteria; conditions: cited from earlier work
Source text: Mammalian LEAP-2 is a single gene, which is mainly expressed by the liver, and to a certain extent by other tissues ([18]). For example, mouse LEAP-2 is mainly expressed in the liver and small intestine ([18]). […] Therefore, LEAP-2 may have other physiological functions besides sterilization. However, unlike mammals with a single LEAP-2 ...

Substance	PI positive bacterial cells (V. fluvialis WY91-24-3)	antibacterial activity [1]
LL-37: human AMP LL-37, positive control of the membrane permeability assay (LLGDFFRKSKEKIGKEFKRIVQRIKDFLRNLVPRTES; Antibacterial peptide LL-37; UniProt P49913 134-170, looked up)	85.2%	–
cleaved form 44-77: cleaved form 44-77 of human LEAP-2 (GVSLRPIGASCRDDSECITRLCRKRRCSLSVAQE; ends and bridges not checked; cysteine pairing not given here; UniProt Q969E1 44-77, looked up, fragment)	–	loses antibacterial activity
mature peptide 38-77 of human LEAP-2: mature peptide 38-77 of human LEAP-2 (MTPFWRGVSLRPIGASCRDDSECITRLCRKRRCSLSVAQE; ends and bridges not checked; cysteine pairing not given here; UniProt Q969E1 38-77, looked up)	–	different killing effects
